Marks after values point to notes of the source that are not given here.
Assays:
Assay type in all cases: in vivo
[1] = test system: Phakopsora pachyrhizi (the causal agent of Asian soybean rust); experiment: Test A: preventive spray on soybean seedlings, Asian soybean rust, visual disease rating; settings: soybean seedlings; for pest or weed control at 50 µg/mL: test suspension 50 ppm
Summary of the method: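 Compound in acetone/water (50/50) with 250 ppm PEG400 sprayed to run-off on soybean seedlings; inoculated next day with Phakopsora pachyrhizi spores. Held 24 h at 22° C in saturated atmosphere, then 8 days in a 22° C growth chamber before visual rating as % disease control relative to controls.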

[2] = test system: Zymoseptoria tritici (the causal agent of wheat leaf blotch); experiment: Test B: preventive spray on wheat seedlings, wheat leaf blotch, visual disease rating; settings: test suspension 250 ppm, wheat seedlings; for pest or weed control at 250 µg/mL: Zymoseptoria tritici, 456 h
Summary of the method: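 This is a preventive test: spray application preceded Zymoseptoria tritici spore inoculation by one day. Test suspensions were in acetone/water with 250 ppm PEG400 surfactant, at the listed ppm rate. After 48 h saturated humidity at 24° C and 17 days at 20° C, visual ratings scored control from 0 to 100%.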

[3] = test system: Puccinia recondita f. sp. tritici (the causal agent of wheat leaf rust); experiment: Test C: preventive spray on wheat seedlings, wheat leaf rust, visual disease rating; settings: wheat seedlings; for pest or weed control at 50 µg/mL: test suspension 50 ppm
Summary of the method: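 Wheat seedlings sprayed to run-off with compound in acetone/water (50/50) with 250 ppm PEG400, then inoculated with spores the following day. After 24 h saturated humidity at 20° C. and 6 days in growth chamber at 20° C., disease rated visually as % control relative to untreated controls.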

[4] = test suspension 10 ppm, 100 = 100% disease control, 0 = no control

Compound	Test A disease control rating [1, 4] [%]	Test B disease control rating [2]	Test C disease control rating ([3]; test suspension 10 ppm) [%]	further results
N#CCNC(=O)c1cnn(COc2ccc(-c3noc(C(F)(F)F)n3)cc2)c1 [compound 214]	100	73* %	74	
O=C(NCCn1cccn1)c1cnn(COc2ccc(-c3noc(C(F)(F)F)n3)cc2)c1 [compound 215]	99	90* %	74	
O=C(OCC1CC1)c1cnn(COc2ccc(-c3noc(C(F)(F)F)n3)cc2)c1 [compound 216]	100	9* %	74	
CCCOC(=O)c1cnn(COc2ccc(-c3noc(C(F)(F)F)n3)cc2)c1 [compound 217]	100	35* %	86	
CN(C)C(=O)C1=NOC(CCOc2cccc(-c3noc(C(F)(F)F)n3)c2)C1 (stereo not drawn) [compound 224]				pest or weed control at 50 µg/mL ([1]; Phakopsora pachyrhizi, 216 h): 100%; pest or weed control at 250 µg/mL [2]: 81%; pest or weed control at 50 µg/mL ([3]; Puccinia recondita, 168 h): 89%
O=C(NCC1CC1(F)F)c1coc(Cc2ccc(-c3noc(C(F)(F)F)n3)cc2)n1 (stereo not drawn) [compound 226]	100	94* %	100	
O=C(c1coc(Cc2ccc(-c3noc(C(F)(F)F)n3)cc2)n1)N1CCCC1 [compound 227]	100	99* %	97	
O=C(c1coc(Cc2ccc(-c3noc(C(F)(F)F)n3)cc2)n1)N1CCC(F)(F)CC1 [compound 228]	100	99* %	79	
CC(C)(C#N)NC(=O)c1coc(Cc2ccc(-c3noc(C(F)(F)F)n3)cc2)n1 [compound 230]	100	99* %	99	
N#CC1(NC(=O)c2coc(Cc3ccc(-c4noc(C(F)(F)F)n4)cc3)n2)CC1 [compound 231]	100	95* %	97	
O=c1cc(-c2noc(C(F)(F)F)n2)ccn1Cc1ccccc1F [compound 232]				pest or weed control at 250 µg/mL ([1]; Phakopsora pachyrhizi, 216 h, test suspension 250 ppm): 100%; pest or weed control at 250 µg/mL [2]: 68%; pest or weed control at 250 µg/mL ([3]; Puccinia recondita, 168 h, test suspension 250 ppm): 100%
COc1cccc(Cn2ccc(-c3noc(C(F)(F)F)n3)cc2=O)c1 [compound 233]				pest or weed control at 50 µg/mL ([1]; Phakopsora pachyrhizi, 216 h): 97%; pest or weed control at 250 µg/mL [2]: 90%; pest or weed control at 50 µg/mL ([3]; Puccinia recondita, 168 h): 100%
CCOC(=O)c1cnn(Cn2ccc(-c3noc(C(F)(F)F)n3)cc2=O)c1 [compound 234]	100	87* %	88	
CCc1nn(Cc2ccc(-c3noc(C(F)(F)F)n3)cc2)c(=O)n1C [compound 235]		87%		Test A disease control rating ([1]; test suspension 250 ppm): 100%; Test C disease control rating ([3]; test suspension 250 ppm): 100%
Cn1c(C2CC2)nn(Cc2ccc(-c3noc(C(F)(F)F)n3)cc2)c1=O [compound 236]		83%		Test A disease control rating ([1]; test suspension 250 ppm): 100%; Test C disease control rating ([3]; test suspension 250 ppm): 100%
CC(C)c1nn(Cc2ccc(-c3noc(C(F)(F)F)n3)cc2)c(=O)n1C [compound 237]		94%		Test A disease control rating ([1]; test suspension 250 ppm): 100%; Test C disease control rating ([3]; test suspension 250 ppm): 100%
CCCc1nn(Cc2ccc(-c3noc(C(F)(F)F)n3)cc2)c(=O)n1C [compound 238]		87%		Test A disease control rating ([1]; test suspension 250 ppm): 100%; Test C disease control rating ([3]; test suspension 250 ppm): 100%
Cn1c(C(F)(F)F)nn(CCc2ccc(-c3noc(C(F)(F)F)n3)cc2)c1=O [compound 239]		0%		Test A disease control rating ([1]; test suspension 250 ppm): 100%; Test C disease control rating ([3]; test suspension 250 ppm): 100%
Cn1c(C(F)(F)F)nn(CCCc2ccc(-c3noc(C(F)(F)F)n3)cc2)c1=O [compound 240]		4%		Test A disease control rating ([1]; test suspension 250 ppm): 100%; Test C disease control rating ([3]; test suspension 250 ppm): 100%
CCOC(=O)c1coc(Cc2ccc(-c3noc(C(F)(F)F)n3)cc2)n1 [compound 252]	100	92* %	84	
O=C(O)c1coc(Cc2ccc(-c3noc(C(F)(F)F)n3)cc2)n1 [compound 253]	98	46* %	74	
NC(=O)c1coc(Cc2ccc(-c3noc(C(F)(F)F)n3)cc2)n1 [compound 254]	100	70* %	100	

Compound	Test A disease control rating [1, 4] [%]	Test B disease control rating [2]	Test C disease control rating ([3]; test suspension 10 ppm) [%]	further results
N#Cc1coc(Cc2ccc(-c3noc(C(F)(F)F)n3)cc2)n1 [compound 256]	100	98* %	99	
N#CCNC(=O)c1coc(Cc2ccc(-c3noc(C(F)(F)F)n3)cc2)n1 [compound 258]	100	99* %	99	
CC(C)NC(=O)c1coc(Cc2ccc(-c3noc(C(F)(F)F)n3)cc2)n1 [compound 259]	100	99* %	99	
O=C(NC1CC1)c1coc(Cc2ccc(-c3noc(C(F)(F)F)n3)cc2)n1 [compound 260]	100	47* %	100	
O=C(c1coc(Cc2ccc(-c3noc(C(F)(F)F)n3)cc2)n1)N1CCC1 [compound 261]	100	88* %	99	
CCN(CC)C(=O)c1coc(Cc2ccc(-c3noc(C(F)(F)F)n3)cc2)n1 [compound 262]	100	96* %	98	
Cn1ccc(CNC(=O)c2coc(Cc3ccc(-c4noc(C(F)(F)F)n4)cc3)n2)n1 [compound 265]	100	93* %	100	
CCOC(=O)c1cnn(Cc2cccc(-c3noc(C(F)(F)F)n3)c2)c1 [compound 276]				pest or weed control at 50 µg/mL ([1]; Phakopsora pachyrhizi, 216 h): 100%; pest or weed control at 250 µg/mL [2]: 35%; pest or weed control at 50 µg/mL ([3]; Puccinia recondita, 168 h): 80%
O=C(NCc1nccs1)c1coc(Cc2ccc(-c3noc(C(F)(F)F)n3)cc2)n1 [compound 277]	100	99* %	100	
COC(CNC(=O)c1coc(Cc2ccc(-c3noc(C(F)(F)F)n3)cc2)n1)OC [compound 278]	100	98* %	100	
COCC(COC)NC(=O)c1coc(Cc2ccc(-c3noc(C(F)(F)F)n3)cc2)n1 [compound 279]	100	94* %	100	
CCNC(=O)c1coc(Cc2ccc(-c3noc(C(F)(F)F)n3)cc2)n1 [compound 280]	100	99* %	99	
O=C(NCC(F)(F)F)c1ccc(Cc2ccc(-c3noc(C(F)(F)F)n3)cc2)cc1 [compound 281]	100	34* %	95	
N#CCNC(=O)c1ccc(Cc2ccc(-c3noc(C(F)(F)F)n3)cc2)cc1 [compound 283]	100	0* %	98	
COCCNC(=O)c1cccc(Cc2ccc(-c3noc(C(F)(F)F)n3)cc2)c1 [compound 284]	100	91* %	100	
N#CCNC(=O)c1cccc(Cc2ccc(-c3noc(C(F)(F)F)n3)cc2)c1 [compound 285]	100	94* %	97	
O=C(NCC(F)(F)F)c1csc(Cc2ccc(-c3noc(C(F)(F)F)n3)cc2)c1 [compound 286]	100	3* %	100	
COCCNC(=O)c1csc(Cc2ccc(-c3noc(C(F)(F)F)n3)cc2)c1 [compound 287]	100	98* %	100	
N#CCNC(=O)c1csc(Cc2ccc(-c3noc(C(F)(F)F)n3)cc2)c1 [compound 288]	100	91* %	100	
O=C(NCCn1cccn1)c1csc(Cc2ccc(-c3noc(C(F)(F)F)n3)cc2)c1 [compound 289]	100	80* %	100	
O=C(NCC1CC1)c1csc(Cc2ccc(-c3noc(C(F)(F)F)n3)cc2)c1 [compound 290]	100	53* %	100	

From patent US20240090503A1, “FUNGICIDAL OXADIAZOLES AND THEIR MIXTURES” (FMC CORPORATION, priority 2020, published 2024)
